Assay results taken from PubChem BioAssay (NCI).
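GI50 = concentration required for 50% inhibition of growth. TGI is the concentration that stops growth completely.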

Assays:
Test in all cases: NCI tumour cell line growth inhibition, 384-well format
[1] = test system: 786-0 renal
[2] = test system: A498 renal
[3] = test system: A549 NSCLC
[4] = test system: ACHN renal
[5] = test system: BT-549 breast
[6] = test system: CAKI-1 renal
[7] = test system: CCRF-CEM leukemia
[8] = test system: COLO 205 colon
[9] = test system: DU-145 prostate
[10] = test system: HCC-2998 colon
[11] = test system: HCT-116 colon
[12] = test system: HCT-15 colon
[13] = test system: HL-60(TB) leukemia
[14] = test system: HOP-62 NSCLC
[15] = test system: HOP-92 NSCLC
[16] = test system: HT29 colon
[17] = test system: IGROV1 ovarian
[18] = test system: K-562 leukemia
[19] = test system: KM12 colon
[20] = test system: LOX IMVI melanoma
[21] = test system: M14 melanoma
[22] = test system: MALME-3M melanoma
[23] = test system: MCF7 breast
[24] = test system: MDA-MB-231 breast
[25] = test system: MDA-MB-435 melanoma
[26] = test system: MDA-MB-468 breast
[27] = test system: MOLT-4 leukemia
[28] = test system: NCI-H226 lung
[29] = test system: NCI-H23 lung

With `COc1ccc(CC(NC(=O)[C@H](C)NC(=O)CN2CCOCC2)C(=O)N[C@@H](Cc2ccccc2)C(=O)[C@@]2(C)CO2)cc1` (some centres not stated) as the compound, how does the GI50 [1] read?
Its GI50 is 0.297 µM.

What about the TGI [1] of the same compound?
Its TGI is 1.03 µM.

What about the GI50 [2] of the same compound?
Its GI50 is 0.226 µM.

And the TGI [2]?
Its TGI is 0.545 µM.

And the GI50 [3]?
Its GI50 is 0.319 µM.

And the TGI [3]?
The TGI was 1.08 µM.

And the GI50 [4]?
The GI50 was 0.509 µM.

What about the TGI [4] of the same compound?
The TGI was 1.69 µM.

And the GI50 [5]?
The GI50 was 0.175 µM.

What about the TGI [5] of the same compound?
Its TGI is 0.316 µM.

And the GI50 [6]?
The GI50 was 0.271 µM.

What about the TGI [6] of the same compound?
Its TGI is 0.765 µM.

And the GI50 [7]?
The GI50 was 0.0374 µM.

And the TGI [7]?
Its TGI is 0.137 µM.

What about the GI50 [8] of the same compound?
Its GI50 is 0.304 µM.

What about the TGI [8] of the same compound?
The TGI was 1.01 µM.

And the GI50 [9]?
The GI50 was 0.302 µM.

And the TGI [9]?
The TGI was 0.861 µM.

What about the GI50 [10] of the same compound?
The GI50 was 0.173 µM.

What about the TGI [10] of the same compound?
The TGI was 0.312 µM.

And the GI50 [11]?
The GI50 was 0.167 µM.

And the TGI [11]?
The TGI was 0.309 µM.

What about the GI50 [12] of the same compound?
The GI50 was 1.81 µM.

What about the TGI [12] of the same compound?
Its TGI is 3.39 µM.

What about the GI50 [13] of the same compound?
The GI50 was 0.147 µM.

What about the TGI [13] of the same compound?
Its TGI is 0.28 µM.

And the GI50 [14]?
The GI50 was 0.184 µM.

What about the TGI [14] of the same compound?
Its TGI is 0.331 µM.

What about the GI50 [15] of the same compound?
Its GI50 is 0.149 µM.

And the TGI [15]?
Its TGI is 0.294 µM.

And the GI50 [16]?
The GI50 was 0.181 µM.

What about the TGI [16] of the same compound?
The TGI was 0.33 µM.

What about the GI50 [17] of the same compound?
Its GI50 is 0.255 µM.

What about the TGI [17] of the same compound?
The TGI was 0.647 µM.

What about the GI50 [18] of the same compound?
The GI50 was 0.224 µM.

What about the TGI [18] of the same compound?
Its TGI is 0.468 µM.

What about the GI50 [19] of the same compound?
Its GI50 is 0.165 µM.

What about the TGI [19] of the same compound?
The TGI was 0.308 µM.

And the GI50 [20]?
Its GI50 is 0.209 µM.

And the TGI [20]?
Its TGI is 0.355 µM.

And the GI50 [21]?
The GI50 was 0.142 µM.

And the TGI [21]?
Its TGI is 0.278 µM.

What about the GI50 [22] of the same compound?
The GI50 was 0.136 µM.

And the TGI [22]?
The TGI was 0.281 µM.

And the GI50 [23]?
The GI50 was 0.138 µM.

And the TGI [23]?
Its TGI is 0.382 µM.

What about the GI50 [24] of the same compound?
Its GI50 is 0.166 µM.

What about the TGI [24] of the same compound?
Its TGI is 0.309 µM.

What about the GI50 [25] of the same compound?
The GI50 was 0.141 µM.

What about the TGI [25] of the same compound?
The TGI was 0.281 µM.

And the GI50 [26]?
Its GI50 is 0.18 µM.

What about the TGI [26] of the same compound?
The TGI was 0.324 µM.

And the GI50 [27]?
The GI50 was 0.0155 µM.

What about the TGI [27] of the same compound?
Its TGI is 0.0289 µM.

What about the GI50 [28] of the same compound?
The GI50 was 0.0605 µM.

What about the TGI [28] of the same compound?
The TGI was 0.186 µM.

What about the GI50 [29] of the same compound?
Its GI50 is 0.21 µM.
